Key:
[1] = system: Epidermal growth factor receptor (Homo sapiens), P00533 [UNDEFINED MUTATION]; settings: Compound concentration 1000.0 nM
[2] = biological target: Alpha-2C adrenergic receptor (Homo sapiens, UniProt P18825); assay: GPCRScan assay: inhibition of Alpha2C; set-up: radioligand conc. used [nm] 0.5 – 1.0, parental cells stable MDCK
[3] = biological target: Platelet-activating factor receptor (Homo sapiens) (UniProt P25105); assay: Inhibition of Platelet Activating Factor (PAF) at 10 µM in the Eurofins-Panlabs radioligand binding assay (Eurofins_assay_265010); settings: Compound concentration 10.0 uM
Sequence of Platelet-activating factor receptor (Homo sapiens) (P25105 whole entry): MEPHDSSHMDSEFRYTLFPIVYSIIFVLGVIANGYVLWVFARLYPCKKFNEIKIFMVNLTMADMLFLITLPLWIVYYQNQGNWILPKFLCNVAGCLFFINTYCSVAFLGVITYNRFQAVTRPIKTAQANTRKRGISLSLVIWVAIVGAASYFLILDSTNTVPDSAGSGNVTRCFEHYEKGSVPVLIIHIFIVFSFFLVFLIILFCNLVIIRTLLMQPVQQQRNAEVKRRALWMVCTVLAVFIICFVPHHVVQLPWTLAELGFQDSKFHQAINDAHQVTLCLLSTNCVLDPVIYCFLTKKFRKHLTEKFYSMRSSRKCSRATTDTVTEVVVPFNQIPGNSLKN

[4] = biological target: D(2) dopamine receptor (Homo sapiens) (UniProt P14416); settings: Compound concentration 10.0 uM
Sequence of D(2) dopamine receptor (Homo sapiens) (P14416 whole entry): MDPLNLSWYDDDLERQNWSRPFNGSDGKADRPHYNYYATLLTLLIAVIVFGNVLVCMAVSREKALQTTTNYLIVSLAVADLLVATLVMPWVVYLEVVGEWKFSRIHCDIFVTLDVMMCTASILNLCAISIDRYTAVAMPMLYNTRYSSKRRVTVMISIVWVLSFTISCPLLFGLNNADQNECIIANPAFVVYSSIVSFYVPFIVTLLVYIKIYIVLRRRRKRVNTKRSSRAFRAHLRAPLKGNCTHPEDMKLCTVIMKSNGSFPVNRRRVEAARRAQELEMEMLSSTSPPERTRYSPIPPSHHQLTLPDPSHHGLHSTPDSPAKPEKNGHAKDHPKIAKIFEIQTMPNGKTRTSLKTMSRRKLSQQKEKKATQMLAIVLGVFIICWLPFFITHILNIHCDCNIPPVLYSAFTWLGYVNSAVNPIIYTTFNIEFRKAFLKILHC

[5] = biological target: T1, 5-hydroxytryptamine receptor 1A (Homo sapiens) (UniProt P08908); settings: Compound concentration 10.0 uM
T1 sequence (whole entry): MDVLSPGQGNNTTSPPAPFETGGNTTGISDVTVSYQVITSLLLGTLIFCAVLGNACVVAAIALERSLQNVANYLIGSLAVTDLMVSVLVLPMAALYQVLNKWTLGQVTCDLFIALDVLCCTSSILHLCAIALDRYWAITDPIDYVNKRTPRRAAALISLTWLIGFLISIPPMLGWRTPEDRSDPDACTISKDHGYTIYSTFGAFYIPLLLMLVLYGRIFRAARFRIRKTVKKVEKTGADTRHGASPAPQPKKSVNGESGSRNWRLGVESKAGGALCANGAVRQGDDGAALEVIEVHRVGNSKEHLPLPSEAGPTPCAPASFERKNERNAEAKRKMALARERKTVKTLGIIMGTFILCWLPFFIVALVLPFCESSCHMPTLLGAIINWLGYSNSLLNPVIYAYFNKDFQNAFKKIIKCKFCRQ

[6] = species on record: Rattus norvegicus; assay: Testosterone Eurofins-Panlabs radioligand binding assay; set-up: ligand concentration 1.5 nM; settings: Compound concentration 10.0 uM
[7] = species on record: Rattus norvegicus; assay: Inhibition of Glutamate, NMDA, Phencyclidine at 10 µM in the Eurofins-Panlabs radioligand binding assay (Eurofins_assay_233000); type: protein-complex assay; settings: Compound concentration 10.0 uM
[8] = species on record: Oryctolagus cuniculus; assay: Inhibition of Purinergic P2X at 10 µM in the Eurofins-Panlabs radioligand binding assay (Eurofins_assay_268700); type: protein assay; settings: Compound concentration 10.0 uM
[9] = biological target: T2, Alpha-1D adrenergic receptor (Homo sapiens) (UniProt P25100); assay: Inhibition of Adrenergic alpha1D at 10 µM in the Eurofins-Panlabs radioligand binding assay (Eurofins_assay_203400); settings: Compound concentration 10.0 uM
T2 sequence (whole entry): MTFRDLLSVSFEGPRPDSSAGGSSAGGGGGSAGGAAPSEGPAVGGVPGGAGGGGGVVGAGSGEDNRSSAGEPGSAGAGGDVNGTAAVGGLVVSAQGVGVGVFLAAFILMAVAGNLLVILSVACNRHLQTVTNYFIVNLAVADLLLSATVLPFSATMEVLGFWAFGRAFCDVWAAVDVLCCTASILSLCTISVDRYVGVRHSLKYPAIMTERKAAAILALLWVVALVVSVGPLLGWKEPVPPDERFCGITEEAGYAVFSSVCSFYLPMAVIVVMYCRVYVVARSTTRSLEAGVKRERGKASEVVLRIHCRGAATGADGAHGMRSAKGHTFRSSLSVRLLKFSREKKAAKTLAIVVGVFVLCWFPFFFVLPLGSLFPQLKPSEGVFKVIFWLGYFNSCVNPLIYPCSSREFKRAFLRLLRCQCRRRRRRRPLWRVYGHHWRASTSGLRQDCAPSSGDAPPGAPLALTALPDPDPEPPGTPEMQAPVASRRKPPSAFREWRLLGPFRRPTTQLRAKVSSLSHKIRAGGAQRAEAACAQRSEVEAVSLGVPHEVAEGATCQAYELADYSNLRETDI

[10] = biological target: T3, Muscarinic acetylcholine receptor M1 (Homo sapiens) (UniProt P11229); settings: Compound concentration 10.0 uM
T3 sequence (whole entry): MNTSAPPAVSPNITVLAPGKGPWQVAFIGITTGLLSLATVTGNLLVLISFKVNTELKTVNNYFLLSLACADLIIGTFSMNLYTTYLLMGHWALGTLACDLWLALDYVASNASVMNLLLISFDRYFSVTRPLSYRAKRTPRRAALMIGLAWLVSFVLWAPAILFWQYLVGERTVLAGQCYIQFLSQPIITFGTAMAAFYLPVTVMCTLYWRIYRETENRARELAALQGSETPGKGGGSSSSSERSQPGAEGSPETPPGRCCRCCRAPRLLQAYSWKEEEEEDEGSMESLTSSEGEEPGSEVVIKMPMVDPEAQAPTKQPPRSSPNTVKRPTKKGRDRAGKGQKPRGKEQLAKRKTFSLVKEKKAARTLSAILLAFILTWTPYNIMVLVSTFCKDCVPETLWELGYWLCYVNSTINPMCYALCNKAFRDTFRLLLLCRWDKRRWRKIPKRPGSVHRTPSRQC

[11] = biological target: T4, Alpha-1A adrenergic receptor (Homo sapiens) (UniProt P35348); settings: Rattus norvegicus; Compound concentration 10.0 uM
T4 sequence (whole entry): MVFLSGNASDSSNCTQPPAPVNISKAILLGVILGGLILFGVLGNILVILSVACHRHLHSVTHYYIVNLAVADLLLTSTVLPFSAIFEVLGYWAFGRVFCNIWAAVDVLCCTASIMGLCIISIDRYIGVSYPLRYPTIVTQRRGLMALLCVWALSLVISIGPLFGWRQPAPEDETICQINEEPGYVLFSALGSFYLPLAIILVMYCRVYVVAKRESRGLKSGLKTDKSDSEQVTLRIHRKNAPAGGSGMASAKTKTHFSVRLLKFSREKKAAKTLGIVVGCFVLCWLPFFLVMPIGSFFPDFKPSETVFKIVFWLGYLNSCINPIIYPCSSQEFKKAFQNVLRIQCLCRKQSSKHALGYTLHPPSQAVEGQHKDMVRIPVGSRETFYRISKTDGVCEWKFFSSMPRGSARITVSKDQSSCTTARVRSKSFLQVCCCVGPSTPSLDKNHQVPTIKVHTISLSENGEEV

[12] = biological target: Endothelin-1 receptor (Homo sapiens) (UniProt P25101); settings: Compound concentration 10.0 uM
Sequence of Endothelin-1 receptor (Homo sapiens) (P25101 whole entry): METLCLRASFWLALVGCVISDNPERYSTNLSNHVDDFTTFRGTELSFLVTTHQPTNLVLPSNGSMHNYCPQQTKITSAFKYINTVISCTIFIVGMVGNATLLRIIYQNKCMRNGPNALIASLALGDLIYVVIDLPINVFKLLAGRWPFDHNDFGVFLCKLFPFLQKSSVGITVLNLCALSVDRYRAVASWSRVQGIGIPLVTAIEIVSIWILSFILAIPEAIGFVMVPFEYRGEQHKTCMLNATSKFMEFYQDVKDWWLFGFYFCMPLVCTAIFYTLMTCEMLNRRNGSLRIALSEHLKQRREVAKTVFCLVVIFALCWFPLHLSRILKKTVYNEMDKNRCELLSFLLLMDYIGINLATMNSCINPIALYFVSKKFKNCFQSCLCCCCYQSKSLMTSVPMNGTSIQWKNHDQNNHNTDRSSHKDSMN

[13] = biological target: Neuropeptide Y receptor type 2 (Homo sapiens) (UniProt P49146); assay: Inhibition of Neuropeptide Y Y2 at 10 µM in the Eurofins-Panlabs radioligand binding assay (Eurofins_assay_257110); settings: Compound concentration 10.0 uM
[14] = biological target: Adenosine receptor A3 (Homo sapiens) (UniProt P0DMS8); settings: Compound concentration 10.0 uM
Sequence of Adenosine receptor A3 (Homo sapiens) (P0DMS8 whole entry): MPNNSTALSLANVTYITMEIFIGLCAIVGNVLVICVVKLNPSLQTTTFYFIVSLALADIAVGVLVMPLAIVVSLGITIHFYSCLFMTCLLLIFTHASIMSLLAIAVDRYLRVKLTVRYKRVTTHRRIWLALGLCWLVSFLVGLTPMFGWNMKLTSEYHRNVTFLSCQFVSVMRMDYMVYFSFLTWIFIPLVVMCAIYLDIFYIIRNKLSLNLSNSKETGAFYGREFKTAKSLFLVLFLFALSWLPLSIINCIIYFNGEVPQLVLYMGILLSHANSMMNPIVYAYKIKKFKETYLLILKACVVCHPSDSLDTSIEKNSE

[15] = biological target: D(3) dopamine receptor (Homo sapiens) (UniProt P35462); settings: Compound concentration 10.0 uM
Sequence of D(3) dopamine receptor (Homo sapiens) (P35462 whole entry): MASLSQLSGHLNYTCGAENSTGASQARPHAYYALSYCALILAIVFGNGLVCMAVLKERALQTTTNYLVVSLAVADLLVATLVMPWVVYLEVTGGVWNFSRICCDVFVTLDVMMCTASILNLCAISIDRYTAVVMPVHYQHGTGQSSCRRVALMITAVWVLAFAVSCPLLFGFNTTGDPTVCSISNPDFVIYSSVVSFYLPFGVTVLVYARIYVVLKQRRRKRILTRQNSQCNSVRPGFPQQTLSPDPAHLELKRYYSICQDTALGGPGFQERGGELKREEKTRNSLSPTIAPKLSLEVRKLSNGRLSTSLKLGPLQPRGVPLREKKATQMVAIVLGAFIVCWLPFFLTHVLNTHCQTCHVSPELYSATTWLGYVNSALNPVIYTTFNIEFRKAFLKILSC

[16] = biological target: Sodium-dependent noradrenaline transporter (Homo sapiens) (UniProt P23975); settings: Compound concentration 10.0 uM
Sequence of Sodium-dependent noradrenaline transporter (Homo sapiens) (P23975 whole entry): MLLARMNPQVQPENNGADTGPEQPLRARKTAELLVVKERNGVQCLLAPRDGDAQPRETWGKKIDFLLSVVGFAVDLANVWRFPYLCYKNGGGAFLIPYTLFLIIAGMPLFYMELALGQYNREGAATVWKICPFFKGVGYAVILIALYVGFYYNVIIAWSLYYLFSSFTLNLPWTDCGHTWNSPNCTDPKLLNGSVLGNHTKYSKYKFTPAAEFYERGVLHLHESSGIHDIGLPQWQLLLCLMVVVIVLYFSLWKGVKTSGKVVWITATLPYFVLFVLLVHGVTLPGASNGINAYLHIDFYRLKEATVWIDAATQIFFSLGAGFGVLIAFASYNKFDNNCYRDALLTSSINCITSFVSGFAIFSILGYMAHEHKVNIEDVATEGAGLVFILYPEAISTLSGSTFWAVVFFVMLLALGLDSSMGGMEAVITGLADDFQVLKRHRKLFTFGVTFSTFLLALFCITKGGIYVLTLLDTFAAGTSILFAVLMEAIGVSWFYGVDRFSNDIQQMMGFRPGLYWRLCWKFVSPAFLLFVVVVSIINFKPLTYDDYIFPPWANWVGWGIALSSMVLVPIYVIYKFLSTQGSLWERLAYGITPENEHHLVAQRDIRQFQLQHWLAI

[17] = biological target: Glucocorticoid receptor (Homo sapiens) (UniProt P04150); assay: Glucocorticoid Eurofins-Panlabs radioligand binding assay; settings: Compound concentration 10.0 uM
Sequence of Glucocorticoid receptor (Homo sapiens) (P04150 whole entry): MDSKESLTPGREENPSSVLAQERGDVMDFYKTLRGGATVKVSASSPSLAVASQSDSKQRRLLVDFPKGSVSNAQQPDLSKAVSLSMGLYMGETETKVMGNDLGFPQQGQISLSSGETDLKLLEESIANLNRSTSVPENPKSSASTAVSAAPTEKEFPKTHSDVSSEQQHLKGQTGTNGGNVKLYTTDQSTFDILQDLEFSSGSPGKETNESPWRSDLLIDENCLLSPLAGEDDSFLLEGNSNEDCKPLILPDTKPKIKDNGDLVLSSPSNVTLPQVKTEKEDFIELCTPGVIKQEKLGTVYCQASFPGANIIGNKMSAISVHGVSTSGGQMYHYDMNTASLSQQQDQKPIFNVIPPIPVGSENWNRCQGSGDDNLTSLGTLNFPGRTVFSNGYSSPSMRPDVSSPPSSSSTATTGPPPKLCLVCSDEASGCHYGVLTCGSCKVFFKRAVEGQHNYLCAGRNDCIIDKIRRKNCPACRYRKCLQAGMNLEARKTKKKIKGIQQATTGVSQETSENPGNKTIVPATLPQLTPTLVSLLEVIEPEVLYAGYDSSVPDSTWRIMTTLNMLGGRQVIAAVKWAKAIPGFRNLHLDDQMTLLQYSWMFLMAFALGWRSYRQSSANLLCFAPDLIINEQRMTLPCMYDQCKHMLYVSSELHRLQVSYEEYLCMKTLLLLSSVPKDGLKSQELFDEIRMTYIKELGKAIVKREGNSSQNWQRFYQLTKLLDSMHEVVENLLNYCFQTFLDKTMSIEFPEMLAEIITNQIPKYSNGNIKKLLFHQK

[18] = biological target: Glutamate receptor ionotropic, kainate (Rattus norvegicus) (UniProt P22756+Q01812+P42260+P42264+Q63273); assay: Inhibition of Glutamate, Kainate at 10 µM in the Eurofins-Panlabs radioligand binding assay (Eurofins_assay_232700); settings: Compound concentration 10.0 uM

Sequence of Alpha-2C adrenergic receptor (P18825 whole entry): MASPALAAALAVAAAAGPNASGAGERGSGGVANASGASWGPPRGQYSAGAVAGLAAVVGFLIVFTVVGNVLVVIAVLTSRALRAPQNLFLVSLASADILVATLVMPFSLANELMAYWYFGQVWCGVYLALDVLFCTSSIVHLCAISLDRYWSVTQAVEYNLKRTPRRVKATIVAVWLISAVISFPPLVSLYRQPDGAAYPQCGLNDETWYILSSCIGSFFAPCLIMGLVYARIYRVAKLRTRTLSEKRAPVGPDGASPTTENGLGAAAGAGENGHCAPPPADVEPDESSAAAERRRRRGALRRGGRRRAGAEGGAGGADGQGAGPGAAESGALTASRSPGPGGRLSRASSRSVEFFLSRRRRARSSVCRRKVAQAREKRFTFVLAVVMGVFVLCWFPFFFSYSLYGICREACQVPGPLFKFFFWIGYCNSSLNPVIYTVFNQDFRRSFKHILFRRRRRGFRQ
Sequence of Epidermal growth factor receptor (Homo sapiens), P00533 [UNDEFINED MUTATION] (P00533 whole entry, looked up, change not shown): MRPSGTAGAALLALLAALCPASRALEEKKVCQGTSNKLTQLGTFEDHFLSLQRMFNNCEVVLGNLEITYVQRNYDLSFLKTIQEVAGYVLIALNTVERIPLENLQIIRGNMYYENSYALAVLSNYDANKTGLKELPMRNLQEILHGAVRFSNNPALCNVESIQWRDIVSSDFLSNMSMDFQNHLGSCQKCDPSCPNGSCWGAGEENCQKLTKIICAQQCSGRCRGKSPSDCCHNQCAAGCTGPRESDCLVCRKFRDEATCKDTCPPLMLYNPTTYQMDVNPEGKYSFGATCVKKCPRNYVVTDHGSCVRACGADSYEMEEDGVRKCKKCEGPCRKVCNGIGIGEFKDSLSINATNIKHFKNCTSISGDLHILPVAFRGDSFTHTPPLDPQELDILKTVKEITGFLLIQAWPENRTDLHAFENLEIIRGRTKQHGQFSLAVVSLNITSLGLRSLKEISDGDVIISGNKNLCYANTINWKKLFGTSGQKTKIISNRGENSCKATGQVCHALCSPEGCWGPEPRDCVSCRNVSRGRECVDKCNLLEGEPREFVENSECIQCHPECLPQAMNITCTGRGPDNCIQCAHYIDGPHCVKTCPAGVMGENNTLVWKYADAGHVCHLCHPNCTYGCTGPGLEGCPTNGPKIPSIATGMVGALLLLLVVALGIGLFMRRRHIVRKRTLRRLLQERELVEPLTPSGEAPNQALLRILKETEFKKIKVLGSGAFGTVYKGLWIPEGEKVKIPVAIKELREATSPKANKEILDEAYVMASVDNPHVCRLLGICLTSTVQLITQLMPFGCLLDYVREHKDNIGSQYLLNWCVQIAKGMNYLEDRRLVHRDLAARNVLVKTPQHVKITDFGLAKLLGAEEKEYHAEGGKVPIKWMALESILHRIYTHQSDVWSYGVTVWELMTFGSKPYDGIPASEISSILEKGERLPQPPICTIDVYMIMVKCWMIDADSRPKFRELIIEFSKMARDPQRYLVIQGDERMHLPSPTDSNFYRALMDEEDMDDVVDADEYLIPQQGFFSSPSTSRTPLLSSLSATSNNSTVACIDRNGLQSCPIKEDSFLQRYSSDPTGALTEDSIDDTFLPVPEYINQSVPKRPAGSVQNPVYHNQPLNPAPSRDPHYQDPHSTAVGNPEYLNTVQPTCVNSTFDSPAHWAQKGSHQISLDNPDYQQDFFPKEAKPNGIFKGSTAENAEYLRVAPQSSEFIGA

SMILES	residual activity [1] [%]	Ki [2] [nM]	inhibition [3] [%]	inhibition [4] [%]	inhibition [5] [%]	inhibition [6] [%]	inhibition [7] [%]	inhibition [8] [%]	inhibition [9] [%]	inhibition [10] [%]	inhibition [11] [%]	inhibition [12] [%]	inhibition [13] [%]	inhibition [14] [%]	inhibition [15] [%]	inhibition [16] [%]	inhibition [17] [%]	inhibition [18] [%]
NS(=O)(=O)c1cc(NC(=O)C2(c3ccccc3Cl)CC2)ccc1Oc1cccc(Cl)c1 [BAY-207]	75	654																
NS(=O)(=O)c1cc(NC(=O)Cc2ccccc2)ccc1Oc1cccc(Cl)c1 [BAY-1797]			-2	15	7	17	-1	5	5	-6	16	3	8	47	28	47	20	3

From ChEMBL document CHEMBL4507265 (2021)
